{
  "source": "patent US20250018030A1",
  "about": "“PHARMACEUTICAL COMPOSITION FOR PROMOTING CANCER IMMUNOTHERAPY AND METHOD FOR PROMOTING CANCER IMMUNOTHERAPY” (China Medical University, priority 2023, published 2025)",
  "key": {"Tc1 cells [1]": {"system": "Tc1 cells", "test": "Intracellular cytokine staining / flow cytometry of genipin-treated skewed Tc1 cells", "assay_type": "cell-based, Mouse", "procedure": "(§1) Mouse lymph nodes and spleens were harvested, and naïve CD4 or CD8 T cells isolated via magnetic bead separation (STEMCELL Technologies) and activated in α-CD3 (10 μg/ml) and α-CD28 (1 μg/ml) pre-coated 96-well plates. Skewing conditions were as follows: Th1 cells/Tc1 cells ([…] 10 μ/ml α-IL-4), Th2 cells/Tc2 cells (20 ng/ml IL-4 and 10 μ/ml α-IFN-γ), Th17 cells/Tc17 cells (20 ng/ml IL-6, 1.25 ng/ml […], 20 ng/ml IL-1β, 20 ng/ml IL-23, 10 μg/ml α-IFN-γ and 10 μg/ml α-IL-4), and Treg cells (5 ng/ml TGF-β, 10 μg/ml α-IFN-γ and 10 μg/ml α-IL-4) in the indicated medium. Cells were cultured for 4-5 days followed by treatment with genipin (3.125 μM, 6.25 μM, 12.5 μM) or DMSO for 12-16 hours.\n(§2) Monoclonal antibodies were purchased from BD Biosciences or eBioscience. For intracellular cytokine staining (ICS), cells were first restimulated by PMA/ionomycin for 5 hours in the presence of GolgiStop (BD Biosciences), followed by surface epitope staining markers before being fixed/permeabilized (BD Cytofix/Cytoperm™) and stained with antibodies targeting intracellular antigens. Cells were finally fixed with 1.5% formaldehyde for 10 minutes at room temperature and analyzed on a FACSVerse flow cytometer (BD Bioscience). Data were analyzed using FlowJo software (Tree Star Inc.)."}, "Tc17 cells": {"system": "Tc17 cells", "test": "Intracellular cytokine staining / flow cytometry of genipin-treated skewed Tc17 cells", "assay_type": "cell-based, Mouse", "conditions": "FIG. 1E-1G", "procedure": "as §1, §2"}, "Th1 cells": {"system": "Th1 cells", "test": "Cytokine staining of genipin-treated skewed Th1 cells", "assay_type": "cell-based, Mouse", "conditions": "data not shown", "procedure": "as §1, §2"}, "Tc1 cells [2]": {"system": "Tc1 cells", "test": "Immunoblotting of PI3K/AKT/mTOR and STAT4 in Tc1 cells", "assay_type": "cell-based, Mouse", "procedure": "The protein concentrations of the total cell lysate or the extracted histones were determined by a Bradford assay (Bio-Rad Laboratories). Immunoblot analysis was performed with 10% sodium dodecyl sulfate-polyacrylamide gel electrophoresis, followed by overnight incubation with primary antibodies (1:1000 dilution) and incubation with horseradish peroxidase-conjugated secondary antibodies (1:5000 dilution; GeneTex). The polyvinylidene difluoride membranes were probed with antibodies against UCP2, pPI3K/PI3K, pAKT/AKT, pmTOR/mTOR, pSTAT1/STAT1, pSTAT4/STAT4, and H3K9Ac, which were purchased from Cell Signaling Technology or Genetex. Actin or Lamin B1 (Merck-Millipore) was used as the loading control. Signals were detected using an ECL solution (GE) and optical density quantified using ImageJ software."}, "B16F10 cells": {"system": "B16F10 cells", "test": "Melanoma model, B16F10 subcutaneous implantation", "assay_type": "in vivo", "conditions": "IL-17−/− mice", "procedure": "as §2\nFor Pan18-subcutaneous implantation, 5×10^5 Pan18 cells were administered to wild-type (WT) or IL-17^−/− mice. Genipin (5 mg/kg, 10 mg/kg, or 30 mg/kg, i.p., every two days) was administered to Pan18-bearing mice for 3 weeks. For 3036-subcutanous implantation, 2×10^5 3036 cells were administered to WT mice. Genipin (10 mg/kg, i.p., every two days) and recombinant anti-IL-17 receptor antibody (αIL-17RA) (1 mg/kg, i.v., once a week) were administered to 3036-bearing mice for 3 weeks. Tumor volumes were evaluated every 2 days. For the orthotopic tumor modelling, mice pancreases were injected with 2×10^5 Pan18 cells and monitored for tumor growth weekly using IVIS kinetics imaging system (Caliper Life-Sciences). Genipin (10 mg/kg, i.p., every two days) or αIL-17RA (1 mg/kg, i.v., once a week) was administered 1 week after tumor implantation. Mice were sacrificed 35 days after tumor induction and tumors weighed. For spontaneous pancreatic cancer model, Cre-dependent conditional knockin mutations of KrasG12D Kras^+/LSLG12D mice (B6; 129-Kras2) were obtained from the Mouse Models of Human Cancer Consortium. Elas-CreERT; Kras^+/LSLG12D mice was generated by breeding Kras^+/LSLG12D mice with Elas-CreER mice obtained from the Level Transgenic Center. To induce the expression of Kras^+/LSLG12D in acinar cells, 5-week-old Elas-CreERT; Kras^+/LSLG12D male mice were injected with 100 μl of tamoxifen (20 mg/ml, i.p., three times per week) for 1 week. To induce chronic inflammation and tumors, 100 μl of cerulein (50 μg/ml, i.p., six times per week) (BACHEM) was given to the mice for 3 weeks. Then, the mice were injected with genipin (10 mg/kg, i.p., every two days) and αIL-17RA (1 mg/kg, i.v., once a week) until the end of the experiment, and overall survival was monitored. For genetically CD4/CD8-specific UCP2 deletion tumor modelling, we generated CD4Cre×UCP2^f/f mice by crossing loxP-UCP2-loxP mice with CD4Cre mice. CD4Cre×UCP2^f/f, WT, and loxP control mice underwent subcutaneous implantation of 2×10^5 Pan18 cells, followed by treatment with αIL-17RA (1 mg/kg, i.v., once a week) for 3 weeks. For melanoma modelling, IL-17/-and WT mice underwent subcutaneous implantation of 5×10^5 B16F10 cells, followed by treatment with genipin (10 mg/kg, i.p., every two days) for 3 weeks. For CD8 depletion tumor modelling, IL-17^−/− mice underwent subcutaneous implantation of 2×10^5 Pan18 cells, followed by treatment with genipin (10 mg/kg, i.p., every two days) and CD8 neutralizing antibody (5 mg/kg, i.v., once a week) for 3 weeks. Tumor volumes were evaluated every 3 days."}},
  "data": [
    {"smiles": "COC(=O)C1=CO[C@@H](O)[C@@H]2C(CO)=CC[C@H]12", "note": "[genipin]", "values": [
      {"measurement": "IL-12R expression in Tc1 cells", "setting": "Tc1 cells [1]; genipin 12.5 μM, FIG. 2O-2P", "value": "increased IL-12R expression"},
      {"measurement": "IFN-γ production in Tc1 cells", "setting": "Tc1 cells [1]; genipin 3.125, 6.25, 12.5 μM, 12-16 hours, FIG. 1C-1D", "value": "promoted IFN-γ"},
      {"measurement": "T-bet expression in IFN-γ+CD8+ T cell population of Tc1 cells", "setting": "Tc1 cells [1]; genipin-treated Tc1 cells, FIG. 1J", "value": "elevated the expression of T-bet"},
      {"measurement": "IFN-γ production in Tc17 cells", "setting": "Tc17 cells", "value": "promoted IFN-γ"},
      {"measurement": "IL-17 expression in Tc17 cells", "setting": "Tc17 cells", "value": "without impacting IL-17 expression"},
      {"measurement": "IFN-γ in Th1 cells", "setting": "Th1 cells", "value": "increased IFN-γ"},
      {"measurement": "STAT4 levels / activation", "setting": "Tc1 cells [2]; genipin 12 hours, FIG. 2Q", "value": "STAT4 activation"},
      {"measurement": "Expression of mTOR and its upstream kinases PI3K and AKT", "setting": "Tc1 cells [2]; genipin-treated Tc1 cells", "value": "increased"},
      {"measurement": "Tumor growth (tumor volume)", "setting": "B16F10 cells; genipin 10 mg/kg i.p. every two days, 3 weeks, FIG. 7B", "value": "additional effect on the inhibition of tumor growth"},
      {"measurement": "Population of Tc1 cells", "setting": "B16F10 cells; genipin 10 mg/kg, FIG. 7C", "value": "increased the expansion of Tc1 cells"},
      {"measurement": "Population of Th1 cells", "setting": "B16F10 cells; genipin 10 mg/kg, FIG. 7D", "value": "not significantly impacting"},
      {"measurement": "Population of Treg cells", "setting": "B16F10 cells; genipin 10 mg/kg, FIG. 7E", "value": "not significantly impacting"},
      {"measurement": "Prevalence of MDSC", "setting": "B16F10 cells; genipin 10 mg/kg, FIG. 7F", "value": "decreasing prevalence of MDSC"}
    ]}
  ]
}
